Data as given in patent publication US20220213070A1, “COMPOUNDS INHIBITING TDG ACTIVITY” (EPITAS BIOSCIENCES (SHANGHAI) CO., LTD., priority 2019, published 2022).

What was measured:
[1] = test system: Lung cancer cell line Calu-1; experiment: Inhibition of the growth of Calu-1 cells (CellTiter-Glo, 72 hours); assay type: cell-based; settings: Homo sapiens, 72 hours of culturing, read-out: Inhibitory activity on alu-1 cell growth IC50
Protocol: 14.2 Experimental Determination of Compound's Inhibitory Rate on the Growth of Calu-1 Cells
Lung cancer cell line Calu-1 was cultured in 90% McCoy's 5A medium (BI, 01-075-1ACS)+10% fetal bovine serum (Gibco, 10270106), placed in a CO2 incubator (37° C., 5% CO2, 95% air) for culturing. Calu-1 cells were digested with trypsin (Gibco, 12604-021) and seeded in a 384-well plate at a density of 500 cells per well. The medium was 50 μL and it was cultured overnight at 37° C. in an incubator. On the next day, different concentrations of test compounds were added, and the final concentration of DMSO was 0.1%. After 72 hours of culturing, the cells were taken out for test. The cell culture medium from the 384-well plate to be tested was removed, and fresh culture medium premixed with CTG was immediately added: the ratio of the culture medium to CellTiter-Glo® 2.0 reagent (Promega, G9243) was 2:1, 30 ul was added to each well. The plate was shaken at room temperature for 20 minutes, and then a multi-function plate reader (TECAN, Infinite 200 Pro) was used according to the reagent instructions to determine the cell survival.
According to the biological method described in this example, the selected compounds of the present invention were analyzed, and the results are shown in Table 1. Among them, “++” in Table 1 refers to the inhibitory activity on the growth of calu-1 cells with IC50≤5 μM; “+” refers to the inhibitory activity on the growth of calu-1 cells with IC50>5 μM.

TDG [2] = biological target: T1, TDG (Homo sapiens, UniProt Q13569); experiment: TDG inhibitory activity of compounds in cells (caC-cmv-firefly luciferase reporter, HEK 293T TDG KO cells transfected with pCDNA4-TDG); assay type: cell-based; settings: read-out: Inhibition rate on TDG activity
T1 sequence (Q13569 whole entry): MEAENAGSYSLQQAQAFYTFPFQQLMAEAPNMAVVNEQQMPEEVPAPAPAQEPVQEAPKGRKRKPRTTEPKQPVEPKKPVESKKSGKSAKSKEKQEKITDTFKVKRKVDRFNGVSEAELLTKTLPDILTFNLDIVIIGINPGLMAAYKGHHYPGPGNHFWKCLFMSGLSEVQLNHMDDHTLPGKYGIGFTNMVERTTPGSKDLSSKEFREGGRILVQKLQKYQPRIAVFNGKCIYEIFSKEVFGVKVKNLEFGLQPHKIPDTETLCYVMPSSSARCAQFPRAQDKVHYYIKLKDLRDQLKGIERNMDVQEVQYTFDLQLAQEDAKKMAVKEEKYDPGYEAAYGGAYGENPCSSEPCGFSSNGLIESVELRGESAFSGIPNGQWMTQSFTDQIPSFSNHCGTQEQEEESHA
Protocol: Experimental Determination of TDG Inhibitory Activity of Compounds in Cells
The operation steps of this example are as follows:
(1) Preparation of Methylation Reporter Plasmid:
(a) SAM with a stock solution concentration of 32 mM was diluted with ultrapure water to 1600 μM;
(b) The reaction system was prepared according to the following ratio: 30 μl ultrapure water, 5 μl 10×NEBuffer 2, 5 μl diluted SAM, 1 μg pCpGL-CMV-firefly plasmid, 1 μl SssI methylase (4 U/μl); 50 μl in total, the reaction was carried out at 37° C. for 2 hours;
(c) The mixture was heated at 65° C. for 20 minutes. Then 0.2% SDS was added, the reaction was carried out at 80° C. for 10 min; and then 1 μl Proteinase K was added, the reaction was carried out at 50° C. for 1 h;
(d) The methylated plasmid was recovered with Dr. GenTLE® sedimentation aid (TAKARA).
(2) Preparation of 5fC/5caC pCpGL-CMV-Firefly Reporter Plasmid
(a) The following 10× reaction system was prepared:
(b) The reaction system was prepared according to the following ratio:
(c) The reaction was carried out at 37° C. for one hour;
(d) 24 μg Tet1 protein was added for the second time and the reaction was continued for one hour;
(e) SDS was added to a final concentration of 0.5%, 80° C., 10 minutes, then 1 μl Proteinase K was added, 55° C. overnight.
(f) The treated caC-cmv-firefly plasmid was recovered with Dr. GenTLE® sedimentation aid (TAKARA) and was quantified.
(3) Using the Luciferase Activity Assay Method to Detect the Inhibitory Rate of Small Molecule Compounds on Intracellular TDG Enzyme Activity
In a 96-well plate, the reaction system and operation flow of each well were as follows:
(a) 1 ng caC-cmv-firefly, Ing pCpGL-CMV-Relina and 150 ng pCDNA4-TDG or 150 ng pCDNA4-myc plasmid, were diluted to 75 ul Opti-MEM, mixed well and allowed to stand still for 5 minutes;
(b) 2 ul transfection reagent (Hieff Trans™ Liposomal transfection Reagent (0.5 ul/well, YEAEEN, Cat #40802)) was diluted in 100 ul Opti-MEM, mixed well and allowed to stand still for 5 minutes;
(c) 75 ul of (a) and (b) were mixed respectively, and allowed to stand still at room temperature for 20 minutes;
(d) HEK 293T TDG KO cells were digested with trypsin, the cells were collected and counted, and the suspension cell concentration was adjusted to 4×10^5/ml;
(e) 50 ul of the mixture (c) was added to each well, and at the same time 100 ul of the diluted cell suspension was added to the same well, and they were mixed well.
(f) After the cells adhering to the wall, different concentrations of small molecule compounds to be tested were added to each well.
(g) Incubation was performed in a 37° C. CO2 incubator for 72 hours. The supernatant was removed and the cells were quickly freezed at −80° C.
(h) Before detecting the luciferase activity, the cells to be tested were removed from −80° C. and allowed to stand still at room temperature for 30 minutes. Following the instructions of Dual-Glo® Luciferase Reagent (PROMEGA), the firefly fluorescence value and Renilla fluorescence value of each well were detected.
(i) The firefly fluorescence value was divided with the Renilla fluorescence value of each well; 96-well plate Z′ and experimental window was calculated by the ratio of transfected caC-cmv-firefly, pCpGL-CMV-Relina, pCDNA4-TDG plasmid mixture plus DMSO experimental group to transfected caC-cmv-firefly, pCpGL-CMV-Relina, pCDNA4-myc plasmid mixture plus DMSO experimental group, and the relative enzyme activity inhibition rate of each compound was calculated.
According to the biological method described in this example, the selected compounds of the present invention were analyzed, and the results are shown in Table 2. Among them, “+” in Table 2 refers to the compound's TDG inhibitory activity at a concentration of 10 μM≤25%; “++” refers to the compound's TDG inhibitory activity at a concentration of 10 μM>25%.

TDG [3] = biological target: T1, TDG; experiment: Inhibition of TDG mismatch repair activity (fluorescent G·U double-stranded DNA probe T1-T2); assay type: biochemical; settings: TDG 100 nM/L, preincubated with compound 37° C. 30 minutes; probe 30 nM; read-out: Inhibitory activity on TDG mismatch repair IC50
Text: 14.1 Experimental Determination of Compound's Inhibitory Rate on TDG Mismatch Repair Activity
(1) A double-stranded DNA probe T1-T2 containing uracil bases was synthesized. The nucleotide sequence of the T1 chain was: 5′-FAM-TAAUGTGAATGGAGCTGAAAT-biotin-3′; The nucleotide sequence of the T2 chain was 5′-ATTTCAGCTCCATTCACGTTA-3′. Using PCR annealing program, the T1 strand and T2 strand were complementary to form a double-stranded DNA probe T1-T2.
(2) The reaction system and steps for each well of a 96-well plate were as follows: a. TDG (100 nM/L) was mixed with different concentrations of compounds, and the mixture was incubated at 37° C. for 30 minutes. The composition of the reaction buffer was: 20 mM HEPES pH7.5, 100 mM NaCl, 0.2 mM EDTA, 2.5 mM MgCl2; b. The double-stranded DNA probe T1-T2 was added to the mixture to obtain a final volume of 100 μL, with a concentration of 30 nM, and the mixture was incubated at 25° C. for 30 min; c. 1 μL of streptavidin magnetic beads were added to the reaction solution and fully bound the biotin-labeled DNA for 1 hour; d. NaOH was added to the reaction solution to a final concentration of 200 mM, and the mixture was incubated at room temperature for 30 minutes; e. Under the action of a magnetic stand the streptavidin magnetic beads were adsorbed to the tube wall, the supernatant was transferred to a new 96-well plate, and placed in a Tecan microplate reader for fluorescence measurement. The parameter settings were: excitation wavelength 485 nm; emission wavelength 520 nm. A linear curve between fluorescence intensity and TDG concentration was constructed, R^2=0.9968, and the linear range was 0-50 nM/L;
According to the biological method described in this example, the selected compounds of the present invention were analyzed, and the results are shown in Table 1. Among them, “++” in Table 1 refers to the inhibitory activity for TDG mismatch repair with IC50≤5 μM; “+” refers to the inhibitory activity for TDG mismatch repair with IC50>5 μM.

## O=C(CCN1Cc2ccccc2C1)c1ccc2c(c1)OCCO2 [Compound 1, 1-(2,3-dihydrobenzo[b][1,4]dioxin-6-yl)-3-(isoindolin-2-yl)propan-1-one]
[1]
  IC50: ≤ 5 µM
TDG [2]
  inhibition at 10 µM: > 25%
TDG [3]
  IC50: ≤ 5 µM

## O=C(CCN1Cc2ccc([N+](=O)[O-])cc2C1)c1ccc2c(c1)OCCO2 [Compound 2, 1-(2,3-dihydrobenzo[b][1,4]dioxin-6-yl)-3-(5-nitroisoindo1-2-yl)propan-1-one]
[1]
  IC50: ≤ 5 µM
TDG [2]
  inhibition at 10 µM: < 25%
TDG [3]
  IC50: ≤ 5 µM

## O=C(CCN1Cc2ccc(Br)cc2C1)c1ccc2c(c1)OCCO2 [Compound 3, 3-(5-bromoisoindolin-2-yl)-1-(2,3-dihydrobenzo[b][1,4]dioxin-6-yl)propan-1-one]
[1]
  IC50: > 5 µM
TDG [2]
  inhibition at 10 µM: < 25%
TDG [3]
  IC50: ≤ 5 µM

## O=C(CCN1Cc2ccc(Cl)cc2C1)c1ccc2c(c1)OCCO2 [Compound 4, 3-(5-chloroisoindolin-2-yl)-1-(2,3-dihydrobenzo[b][1,4]dioxin-6-yl)propan-1-one]
[1]
  IC50: > 5 µM
TDG [2]
  inhibition at 10 µM: < 25%
TDG [3]
  IC50: ≤ 5 µM

## COc1ccc2c(c1)CN(CCC(=O)c1ccc3c(c1)OCCO3)C2 [Compound 5, 1-(2,3-dihydrobenzo[b][1,4]dioxin-6-yl)-3-(5-methoxyisoindolin-2-yl)propan-1-one]
[1]
  IC50: ≤ 5 µM
TDG [2]
  inhibition at 10 µM: < 25%
TDG [3]
  IC50: ≤ 5 µM

## O=C(CCN1Cc2ccc(F)cc2C1)c1ccc2c(c1)OCCO2 [Compound 6, 1-(2,3-dihydrobenzo[b][1,4]dioxin-6-yl)-3-(5-fluoroiso-2-yl)propan-1-one]
[1]
  IC50: > 5 µM
TDG [2]
  inhibition at 10 µM: < 25%
TDG [3]
  IC50: ≤ 5 µM

## CC(=O)c1ccc2c(c1)CN(CCC(=O)c1ccc3c(c1)OCCO3)C2 [Compound 7, 3-(5-acetylisoindolin-2-yl)-1-(2,3-dihydrobenzo[b][1,4]dioxin-6-yl)propan-1-one]
[1]
  IC50: > 5 µM
TDG [2]
  inhibition at 10 µM: < 25%
TDG [3]
  IC50: ≤ 5 µM

## N#Cc1ccc2c(c1)CN(CCC(=O)c1ccc3c(c1)OCCO3)C2 [Compound 8]
[1]
  IC50: > 5 µM
TDG [2]
  inhibition at 10 µM: < 25%
TDG [3]
  IC50: ≤ 5 µM

## Nc1ccc2c(c1)CN(CCC(=O)c1ccc3c(c1)OCCO3)C2 [Compound 9, 3-(5-aminoisoindolin-2-yl)-1-(2,3-dihydrobenzo[b][1,4]dioxin-6-yl)propan-1-one]
[1]
  IC50: ≤ 5 µM
TDG [2]
  inhibition at 10 µM: > 25%
TDG [3]
  IC50: ≤ 5 µM

## OC(CCN1Cc2ccccc2C1)c1ccc2c(c1)OCCO2 (centres unmarked) [Compound 10, 1-(2,3-dihydrobenzo[b][1,4]dioxin-6-yl)-3-(isoindolin-2-yl)propan-1-ol]
[1]
  IC50: > 5 µM
TDG [2]
  inhibition at 10 µM: < 25%
TDG [3]
  IC50: > 5 µM

## O=C(CCN1CCc2ccccc21)c1ccc2c(c1)OCCO2 [Compound 11, 1-(2,3-dihydrobenzo[b][1,4]dioxin-6-yl)-3-(indoline-1-yl)propan-1-one]
[1]
  IC50: > 5 µM
TDG [2]
  inhibition at 10 µM: < 25%
TDG [3]
  IC50: > 5 µM

## O=C(CCN1C(=O)c2ccccc2C1=O)c1ccc2c(c1)OCCO2 [Compound 12, 2-(3-(2,3-dihydrobenzo[b][1,4]dioxin-6-yl)-3-oxopropyl)isoindole-1,3-dione]
[1]
  IC50: > 5 µM
TDG [2]
  inhibition at 10 µM: < 25%
TDG [3]
  IC50: > 5 µM

## O=C(CCN1CCc2ccccc2C1)c1ccc2c(c1)OCCO2 [Compound 13, 1-(2,3-dihydrobenzo[b][1,4]dioxin-6-yl)-3-(3,4-dihydroisoquinoline-2(1H)-yl)propan-1-one]
[1]
  IC50: ≤ 5 µM
TDG [2]
  inhibition at 10 µM: < 25%
TDG [3]
  IC50: ≤ 5 µM

## O=C(CCN1CCCc2ccccc21)c1ccc2c(c1)OCCO2 [Compound 14, 1-(2,3-dihydrobenzo[b][1,4]dioxin-6-yl)-3-(3,4-dihydrouinoline-1(2H)-yl)propan-1-one]
[1]
  IC50: > 5 µM
TDG [2]
  inhibition at 10 µM: < 25%
TDG [3]
  IC50: > 5 µM

## O=C(CCN1CCOc2ccccc21)c1ccc2c(c1)OCCO2 [Compound 15, 3-(2,3-dihydro-4H-benzo[b][1,4]oxazin-4-yl)-1-(2,3-dihydrobenzo[b][1,4]dioxin-6-yl)propan-1-one]
[1]
  IC50: > 5 µM
TDG [2]
  inhibition at 10 µM: < 25%
TDG [3]
  IC50: > 5 µM

## O=C(CCN1CCCC1)c1ccc2c(c1)OCCO2 [Compound 16, 1-(2,3-dihydrobenzo[b][1,4]dioxin-6-yl)-3-(pyrrolidin-1-yl)propan-1-one]
[1]
  IC50: > 5 µM
TDG [2]
  inhibition at 10 µM: < 25%
TDG [3]
  IC50: ≤ 5 µM

## O=C1CCN(CCC(=O)c2ccc3c(c2)OCCO3)C1 [Compound 17, 1-(3-(2,3-dihydrobenzo[b][1,4]dioxin-6-yl)-3-oxopropyl)pyrrolidin-3-one]
[1]
  IC50: > 5 µM
TDG [2]
  inhibition at 10 µM: < 25%
TDG [3]
  IC50: ≤ 5 µM

## Cc1ccc(C2CCN(CCC(=O)c3ccc4c(c3)OCCO4)C2)cc1 (centres unmarked) [Compound 48, 1-(2,3-dihydrobenzo[b][1,4]dioxin-6-yl)-3-(3-(p-tolyl)pyrrolidin-1-yl)propan-1-one]
[1]
  IC50: ≤ 5 µM
TDG [3]
  IC50: ≤ 5 µM
